In patent US10851367B2, “Tissue-specific genome engineering using CRISPR-Cas9” (Pfizer Inc., priority 2015, dated 2020) one finds Kd data, which are given here for one compound.

By Kd is commonly meant the free concentration of one partner at which half of the binding sites on the other are occupied at equilibrium, for simple one-to-one binding. Read a high Kd as weaker binding.

SMILES strings stand for the structures.

The target in this assay is T1, ASGPR (Homo sapiens, UniProt P07306).
T1 sequence (P07306 148-291 limits assumed): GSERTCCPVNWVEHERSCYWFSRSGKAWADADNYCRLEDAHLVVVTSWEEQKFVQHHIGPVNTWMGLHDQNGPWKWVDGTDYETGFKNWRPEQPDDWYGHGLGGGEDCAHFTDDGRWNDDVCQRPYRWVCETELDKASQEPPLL
Nature of the assay: SPR binding measurements for ASGPr ligands (Biacore 3000). The conditions noted are these: biotinylated ASGPR immobilized, 25° C., each run separately reported or n and std dev noted. The procedure:
SPR Binding Measurements for ASGPr Ligands:
All SPR measurements with compounds were performed using a Biacore 3000 (GE Healthcare) at 25° C. Biotinylated ASGPR was immobilized typically at 2000-3000 resonance units (Ru) using either SA sensor chips (GE Healthcare) or custom sensor chips with Neutravidin (Pierce Biochemical) immobilized by standard amine coupling to CM5 sensor chips (GE Healthcare). The running buffer was HBS (10 mM HEPES, 150 mM NaCl), 20 mM CaCl2, 0.01% p20, 3% DMSO or 50 mM tris, 150 mM NaCl, 50 mM CaCl2, 0.01% p20, 3% DMSO pH 7.5. Compounds were diluted into running buffer at a concentration of 900 uM and serially diluted 3 fold to 3.7 uM. Compound solutions were injected at 50 ul/min for 1 min followed by a 1 min dissociation in duplicate for each concentration. For the multimeric conjugates (dimers, trimers), the conjugates were diluted in running buffer to concentrations of 100 nM or 10 nM and serially diluted. Conjugates were injected for 2 min and off rates were detected for 300 or 600 sec. After completion of off phase data the compounds were displaced using an injection of 900 uM GalNAc returning the receptor surface to the free state. […] KDs were determined by fitting the steady state binding responses for the compounds and single conjugated molecules in Scrubber2. […]
Background: In SPR one partner is held on a chip, and binding of the other changes the refractive index at the surface.

The compound `CN(C(=O)OC(C)(C)C)[C@H]1[C@H]2OC[C@](CO)(O2)[C@H](O)[C@@H]1O` [Compound 31, tert-butyl [(1S,2R,3R,4R,5S)-2,3-dihydroxy-1-(hydroxymethyl)-6,8-dioxabicyclo[3.2.1]oct-4-yl]methylcarbamate] registered a Kd of 12.3 µM. That is a double-digit micromolar value.
